Reference: ChEMBL document CHEMBL1201862, “PubChem BioAssay data set” (2004)
Active and inactive are the calls of the source. For most assays here, no stated cut-off is given here; in the data, actives have a measured EC50 and inactives only a lower limit.

Experiments:
[1] = biological target: Peroxisome proliferator-activated receptor gamma (Homo sapiens, UniProt P37231); assay: PPARg partial agonists, dose response, cell-based, luminescence, assay provider (AID 504447); assay type: functional
Sequence of Peroxisome proliferator-activated receptor gamma (P37231 whole entry): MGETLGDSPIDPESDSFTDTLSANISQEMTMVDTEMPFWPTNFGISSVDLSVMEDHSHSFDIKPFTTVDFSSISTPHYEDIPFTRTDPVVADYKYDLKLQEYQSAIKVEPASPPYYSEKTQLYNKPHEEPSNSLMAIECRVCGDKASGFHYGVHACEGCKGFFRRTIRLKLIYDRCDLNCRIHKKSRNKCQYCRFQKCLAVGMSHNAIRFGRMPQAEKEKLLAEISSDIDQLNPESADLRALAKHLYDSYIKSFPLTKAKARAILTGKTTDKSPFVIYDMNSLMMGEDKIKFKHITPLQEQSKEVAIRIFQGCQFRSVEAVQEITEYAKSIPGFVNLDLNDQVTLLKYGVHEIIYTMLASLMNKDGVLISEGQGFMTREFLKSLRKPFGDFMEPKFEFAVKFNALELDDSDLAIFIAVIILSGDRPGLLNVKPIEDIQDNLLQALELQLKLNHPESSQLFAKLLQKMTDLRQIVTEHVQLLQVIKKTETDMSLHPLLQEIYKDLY

[2] = cytotoxicity toward DRD oncogenic fibroblasts, dose response, cell-based, non-viral oncogenic, luminescence (AID 1934); assay type: functional; conditions: Homo sapiens
[3] = test system: BJ; assay: cytotoxicity toward BJ-TERT-LT-ST fibroblasts, dose response, cell-based, RAS-independent, luminescence (AID 1935); assay type: functional; conditions: Homo sapiens;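 further: BJ fibroblasts immortalized with TERT plus LT and ST oncogenes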
[4] = test system: BJ; assay: cells; assay type: functional, cell-based; conditions: Homo sapiens
[5] = biological target: T1, Replicative DNA helicase DnaB (Mycobacterium tuberculosis, UniProt P9WMR3); assay: DnaB intein splicing inhibitors, dose response, biochemical, cell-free fluorescence (AID 449749); assay type: functional
T1 sequence (P9WMR3 whole entry): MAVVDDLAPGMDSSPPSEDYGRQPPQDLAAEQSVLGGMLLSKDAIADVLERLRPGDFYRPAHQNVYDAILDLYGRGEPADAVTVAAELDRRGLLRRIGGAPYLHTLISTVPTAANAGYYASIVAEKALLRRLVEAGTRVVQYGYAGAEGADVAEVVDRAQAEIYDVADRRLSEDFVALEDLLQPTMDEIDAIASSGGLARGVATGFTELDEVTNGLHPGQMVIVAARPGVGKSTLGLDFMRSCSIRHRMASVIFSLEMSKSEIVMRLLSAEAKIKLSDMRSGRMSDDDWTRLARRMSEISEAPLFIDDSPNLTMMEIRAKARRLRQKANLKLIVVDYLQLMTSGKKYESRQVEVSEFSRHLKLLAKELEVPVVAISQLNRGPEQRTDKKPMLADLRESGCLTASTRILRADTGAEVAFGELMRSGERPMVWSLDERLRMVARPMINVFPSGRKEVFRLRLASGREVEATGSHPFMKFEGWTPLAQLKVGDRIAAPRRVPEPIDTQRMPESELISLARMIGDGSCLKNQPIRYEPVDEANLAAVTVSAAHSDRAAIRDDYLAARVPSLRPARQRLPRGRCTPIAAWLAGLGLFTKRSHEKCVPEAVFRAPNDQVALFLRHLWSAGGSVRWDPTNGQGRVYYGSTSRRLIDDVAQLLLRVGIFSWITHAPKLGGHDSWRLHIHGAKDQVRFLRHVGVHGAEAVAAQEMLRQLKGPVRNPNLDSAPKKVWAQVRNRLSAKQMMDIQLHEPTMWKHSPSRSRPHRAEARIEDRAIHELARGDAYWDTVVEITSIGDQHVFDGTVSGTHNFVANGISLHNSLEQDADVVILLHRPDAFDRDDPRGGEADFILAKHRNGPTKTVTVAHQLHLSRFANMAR

[6] = test system: BJ; assay: cytotoxicity toward BJ-TERT fibroblasts, dose response, cell-based, RAS-independent, luminescence (AID 1933); assay type: functional; conditions: Homo sapiens
[7] = biological target: T2, Calpain-2 catalytic subunit (Sus scrofa, UniProt P43367); assay: pig calpain II inhibitor potency, dose response, biochemical, fluorogenic peptide substrate (AID 1420); assay type: functional
T2 sequence (P43367 whole entry): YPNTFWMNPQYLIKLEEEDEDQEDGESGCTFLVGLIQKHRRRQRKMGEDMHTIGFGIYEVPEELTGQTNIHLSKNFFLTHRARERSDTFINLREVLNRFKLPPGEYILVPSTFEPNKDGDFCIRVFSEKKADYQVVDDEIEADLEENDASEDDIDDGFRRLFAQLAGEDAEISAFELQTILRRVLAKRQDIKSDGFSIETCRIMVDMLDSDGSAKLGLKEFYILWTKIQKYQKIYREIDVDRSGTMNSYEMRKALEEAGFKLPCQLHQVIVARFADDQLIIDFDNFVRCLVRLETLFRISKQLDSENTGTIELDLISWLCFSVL

[8] = biological target: T3, Protein RecA (Mycobacterium tuberculosis, UniProt P9WHJ3); assay: Fluorescence Cell-Free Homogeneous Dose Retest to Identify Inhibitors of RecA-Intein Splicing Activity. [Related pubchem assays (depositor defined):AID2097, AID2223, AID489010, AID492950]; assay type: functional
T3 sequence (P9WHJ3 whole entry): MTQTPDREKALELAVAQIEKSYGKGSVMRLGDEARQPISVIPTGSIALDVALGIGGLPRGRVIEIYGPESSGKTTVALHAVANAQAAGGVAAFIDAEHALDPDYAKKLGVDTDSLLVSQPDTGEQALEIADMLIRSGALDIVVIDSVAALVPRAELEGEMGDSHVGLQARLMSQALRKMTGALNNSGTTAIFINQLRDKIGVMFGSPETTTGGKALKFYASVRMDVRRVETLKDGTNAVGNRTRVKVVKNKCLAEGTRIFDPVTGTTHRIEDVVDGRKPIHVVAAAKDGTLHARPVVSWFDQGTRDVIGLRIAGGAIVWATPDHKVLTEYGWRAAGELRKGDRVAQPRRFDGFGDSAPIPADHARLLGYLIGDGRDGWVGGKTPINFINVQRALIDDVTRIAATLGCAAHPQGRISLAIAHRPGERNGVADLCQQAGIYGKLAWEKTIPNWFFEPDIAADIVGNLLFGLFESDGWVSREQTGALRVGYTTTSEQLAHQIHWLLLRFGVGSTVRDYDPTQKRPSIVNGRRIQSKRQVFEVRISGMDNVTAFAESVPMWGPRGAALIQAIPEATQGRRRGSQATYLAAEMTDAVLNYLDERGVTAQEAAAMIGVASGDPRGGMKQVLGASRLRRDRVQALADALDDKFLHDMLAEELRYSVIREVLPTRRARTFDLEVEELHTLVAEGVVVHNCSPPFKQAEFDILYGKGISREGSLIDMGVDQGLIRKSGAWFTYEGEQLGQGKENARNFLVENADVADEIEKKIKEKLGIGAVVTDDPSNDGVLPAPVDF

[9] = Intein inhibitors as potential Tuberculosis drugs, a cytotoxicity screen. [Related pubchem assays (depositor defined):AID2221, AID2223, AID434968, AID435010, AID449749, AID449750, AID489010]; assay type: functional
[10] = test system: BJ; assay: cytotoxicity toward Ras-transformed BJeLR fibroblasts, dose response, cell-based, alamar blue fluorescence, cherrypicked samples (AID 2631); assay type: functional; conditions: Homo sapiens;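 further: confirmatory dose-response assay in RAS-dependent BJ fibroblasts engineered with TERT, LT and ST, with cytotoxicity read by fluorescence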
[11] = biological target: Ion channel NompC (Danio rerio, UniProt Q7T1G6); assay: Dose response cell-based high-throughput screening assay for agonists of the transient receptor potential channel N1 (TRPN1). [Related pubchem assays (depositor defined):AID1424, AID1448]; assay type: functional
Sequence of Ion channel NompC (Q7T1G6 whole entry): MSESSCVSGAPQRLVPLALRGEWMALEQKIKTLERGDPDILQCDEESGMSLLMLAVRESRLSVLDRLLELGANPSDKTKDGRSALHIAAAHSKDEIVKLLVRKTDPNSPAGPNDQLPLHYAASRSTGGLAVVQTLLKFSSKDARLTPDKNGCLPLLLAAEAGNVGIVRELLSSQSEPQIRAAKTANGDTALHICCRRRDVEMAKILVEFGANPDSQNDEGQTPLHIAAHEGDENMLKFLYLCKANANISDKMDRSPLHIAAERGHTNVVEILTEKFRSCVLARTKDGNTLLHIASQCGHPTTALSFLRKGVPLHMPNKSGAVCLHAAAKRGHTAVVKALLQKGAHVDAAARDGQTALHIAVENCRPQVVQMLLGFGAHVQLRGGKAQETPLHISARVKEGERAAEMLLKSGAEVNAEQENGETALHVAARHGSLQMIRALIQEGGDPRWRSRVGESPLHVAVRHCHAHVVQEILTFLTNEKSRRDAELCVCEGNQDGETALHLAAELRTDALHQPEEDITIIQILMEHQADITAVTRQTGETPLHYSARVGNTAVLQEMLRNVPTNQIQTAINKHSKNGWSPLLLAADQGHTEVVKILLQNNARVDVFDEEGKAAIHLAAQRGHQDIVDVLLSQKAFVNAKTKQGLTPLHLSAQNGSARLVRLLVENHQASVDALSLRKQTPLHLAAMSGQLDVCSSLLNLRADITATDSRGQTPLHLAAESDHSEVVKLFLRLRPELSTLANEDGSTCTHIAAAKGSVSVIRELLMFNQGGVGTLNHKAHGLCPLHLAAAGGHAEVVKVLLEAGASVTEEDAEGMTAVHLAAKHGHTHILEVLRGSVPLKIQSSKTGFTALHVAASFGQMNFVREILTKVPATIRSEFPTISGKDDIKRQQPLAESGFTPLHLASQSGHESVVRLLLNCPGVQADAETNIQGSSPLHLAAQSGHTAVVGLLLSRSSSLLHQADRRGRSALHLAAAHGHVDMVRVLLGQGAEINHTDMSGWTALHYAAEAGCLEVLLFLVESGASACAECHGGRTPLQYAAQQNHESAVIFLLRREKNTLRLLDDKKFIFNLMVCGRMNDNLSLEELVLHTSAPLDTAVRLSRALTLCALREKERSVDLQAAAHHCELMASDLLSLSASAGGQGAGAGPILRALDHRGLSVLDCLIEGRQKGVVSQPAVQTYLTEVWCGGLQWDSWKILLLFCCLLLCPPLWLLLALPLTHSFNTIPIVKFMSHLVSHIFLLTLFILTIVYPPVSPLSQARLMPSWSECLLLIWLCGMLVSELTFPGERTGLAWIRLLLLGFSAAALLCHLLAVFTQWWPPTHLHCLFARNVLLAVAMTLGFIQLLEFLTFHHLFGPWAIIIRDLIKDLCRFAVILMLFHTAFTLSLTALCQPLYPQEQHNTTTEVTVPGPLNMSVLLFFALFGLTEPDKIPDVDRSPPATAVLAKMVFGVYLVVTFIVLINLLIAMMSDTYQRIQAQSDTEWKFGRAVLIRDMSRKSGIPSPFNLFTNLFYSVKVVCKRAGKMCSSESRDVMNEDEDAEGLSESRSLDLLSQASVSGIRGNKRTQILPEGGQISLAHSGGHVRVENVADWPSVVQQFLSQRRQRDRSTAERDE

[12] = biological target: T4, Zinc finger protein mex-5 (Caenorhabditis elegans, UniProt Q9XUB2); assay: MEX-5/TCR-2 RNA interaction inhibitors, dose response, biochemical, C. elegans, fluorescence polarization (AID 1960)
T4 sequence (Q9XUB2 whole entry): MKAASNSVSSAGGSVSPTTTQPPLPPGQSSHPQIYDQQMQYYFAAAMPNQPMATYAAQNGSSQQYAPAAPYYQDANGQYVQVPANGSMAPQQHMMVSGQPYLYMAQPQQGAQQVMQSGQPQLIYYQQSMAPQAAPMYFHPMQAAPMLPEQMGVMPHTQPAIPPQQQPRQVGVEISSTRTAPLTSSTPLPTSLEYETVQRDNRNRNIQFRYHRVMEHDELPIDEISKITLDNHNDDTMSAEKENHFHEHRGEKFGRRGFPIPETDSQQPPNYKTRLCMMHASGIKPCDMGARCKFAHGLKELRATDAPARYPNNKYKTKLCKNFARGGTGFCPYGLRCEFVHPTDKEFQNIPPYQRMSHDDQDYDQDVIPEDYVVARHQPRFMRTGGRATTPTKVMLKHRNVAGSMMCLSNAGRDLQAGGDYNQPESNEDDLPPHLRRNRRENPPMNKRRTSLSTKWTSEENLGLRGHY

[13] = biological target: T5, RNA-binding protein pos-1 (Caenorhabditis elegans, UniProt G5EF15); assay: inhibitors of POS-1/mex-3 RNA binding, dose response, biochemical, fluorescence polarization (AID 1964);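 further: purified POS-1 fused to maltose binding protein made in E. coli; potency of compounds blocking POS-1 binding to fluorescent RNA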
T5 sequence (G5EF15 whole entry): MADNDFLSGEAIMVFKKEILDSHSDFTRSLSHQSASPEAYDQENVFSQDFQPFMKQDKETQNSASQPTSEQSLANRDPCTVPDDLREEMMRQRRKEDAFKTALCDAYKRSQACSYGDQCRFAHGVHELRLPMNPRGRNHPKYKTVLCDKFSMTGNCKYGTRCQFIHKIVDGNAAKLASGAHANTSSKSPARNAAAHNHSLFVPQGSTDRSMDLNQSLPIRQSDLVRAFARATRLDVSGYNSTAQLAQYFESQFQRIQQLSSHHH

[14] = biological target: Mucolipin-3 (Homo sapiens, UniProt Q8TDD5); assay: Fluorescence counterscreen assay for […] agonists: dose response cell-based high-throughput screening assay to identify agonists of the transient receptor potential channel ML3 (TRPML3). [Related pubchem assays: 1424, 1448 ]; assay type: functional
Sequence of Mucolipin-3 (Q8TDD5 whole entry): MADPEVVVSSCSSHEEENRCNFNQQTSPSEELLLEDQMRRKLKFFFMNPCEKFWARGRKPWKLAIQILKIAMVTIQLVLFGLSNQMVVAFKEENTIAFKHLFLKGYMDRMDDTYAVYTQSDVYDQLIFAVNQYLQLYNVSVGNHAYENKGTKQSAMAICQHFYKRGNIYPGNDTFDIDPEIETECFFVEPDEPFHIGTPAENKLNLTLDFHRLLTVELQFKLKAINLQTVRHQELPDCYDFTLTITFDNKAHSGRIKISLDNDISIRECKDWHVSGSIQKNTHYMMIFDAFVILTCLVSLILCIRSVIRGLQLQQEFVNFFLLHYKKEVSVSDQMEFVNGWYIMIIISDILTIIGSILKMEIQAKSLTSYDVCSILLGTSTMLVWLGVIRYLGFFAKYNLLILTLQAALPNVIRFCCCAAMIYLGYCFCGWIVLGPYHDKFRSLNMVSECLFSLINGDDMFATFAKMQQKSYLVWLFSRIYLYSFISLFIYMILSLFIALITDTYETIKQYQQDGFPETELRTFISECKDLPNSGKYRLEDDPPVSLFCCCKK

[15] = biological target: T6, Coagulation factor XII (Homo sapiens, UniProt P00748); assay: Factor XIIa Dose Response Confirmation from Single Well HTS. [Related pubchem assays (depositor defined):AID701]; assay type: functional
T6 sequence (P00748 whole entry): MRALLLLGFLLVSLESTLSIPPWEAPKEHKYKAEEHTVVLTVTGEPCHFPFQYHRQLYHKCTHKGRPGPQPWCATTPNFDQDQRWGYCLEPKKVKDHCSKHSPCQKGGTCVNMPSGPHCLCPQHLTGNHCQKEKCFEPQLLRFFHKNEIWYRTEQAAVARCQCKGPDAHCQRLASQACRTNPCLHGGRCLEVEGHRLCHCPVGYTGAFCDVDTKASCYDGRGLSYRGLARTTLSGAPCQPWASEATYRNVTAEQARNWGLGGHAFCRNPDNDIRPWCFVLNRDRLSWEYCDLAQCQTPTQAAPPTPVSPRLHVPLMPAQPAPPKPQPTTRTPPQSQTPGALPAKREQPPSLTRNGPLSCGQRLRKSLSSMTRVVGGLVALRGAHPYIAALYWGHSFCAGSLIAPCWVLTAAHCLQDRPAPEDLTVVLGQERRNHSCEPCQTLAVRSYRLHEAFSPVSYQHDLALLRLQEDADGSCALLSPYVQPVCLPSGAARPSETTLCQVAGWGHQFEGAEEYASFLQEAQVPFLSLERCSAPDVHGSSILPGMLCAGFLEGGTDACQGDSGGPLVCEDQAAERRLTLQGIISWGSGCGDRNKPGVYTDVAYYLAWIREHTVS
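Wherever CC50 is given: cells exposed to compound for 72 hours before luminescence readout.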

In the case of `COc1ccc2c(c1)c(=O)c(C(=O)c1ccc(C)cc1)cn2CC(=O)Nc1ccc(F)cc1`, the EC50 [1] is reported as 14 µM (active).

For `Cc1ccc(N(C(=O)CCl)C(C(=O)NC2CCCCC2)c2cccnc2)cc1C` (stereo not given), the EC50 [2] was 0.413 µM (active), the EC50 [3] was 3.95 µM (active) and the EC50 [4] was 1.25 µM (active). For the same compound, the AC50 [5] was 2.3 µM (active), the EC50 [6] was 0.171 µM (inconclusive) and the IC50 [7] was 34.7 µM (not active). For the same compound, the EC50 [8] was 0.339 µM (active), the CC50 [9] was 0.1 µM (active) and the EC50 [10] was 0.147 µM (active).

In the case of `CN1C(=O)C(=Cc2sc(=O)n(-c3ccccc3)c2N2CCCCC2)C(=O)N(C)C1=O`, the EC50 [11] is reported as > 3.32 µM (inactive), the EC50 [12] is reported as 19.9 µM (inconclusive) and the EC50 [13] is reported as 4.56 µM (inconclusive). The EC50 [14] was 10.7 µM (not active).

With `Cc1ccccc1CNCc1cccnc1` the IC50 [15] was > 50 µM (inactive).
